Experiment: Copper corrosion rate by linear polarization resistance
Details: for No FRC Corrosion Rate (mpy) / 1 ppm FRC Corrosion Rate (mpy): copper coupons, 5 ppm inhibitor, pH 7.0, 45° C.; for No FRC Corrosion Rate (mpy): absence of bleach, average over 20 to 24 hour period; for 1 ppm FRC Corrosion Rate (mpy): bleach maintained at 1 ppm FRC
Method: In addition, the corrosion rate of copper in the presence of benzimidazole, tolyltriazole, imidazole, pyrimidine, 6,6-dimethyladenine, and 6-methylpurine was determined using linear polarization resistance measurements. […] For each experiment, cylindrical copper coupons pre-polished using SIC 600 paper and fitted on a Pine rotator were immersed in a solution of corrosion inhibitor. […] The pH of the test water was maintained at 7.0 using carbon dioxide, and the water temperature was maintained at 45° C. throughout the experiment. […] Density: 8.92 g/cm^3; Copper Eq. Weight: 63.54 g; and Initial delay: 30 seconds. Next, the copper samples were exposed to a 25% bleach solution. […] The Rp in the absence and presence of bleach was collected and analyzed, and the average corrosion rate was calculated and recorded in Table 1. Corrosion rates were calculated in mils per year (mpy).

Row | Compound | No FRC Corrosion Rate (mpy) | 1 ppm FRC Corrosion Rate (mpy) | change of copper corrosion rate upon the addition of bleach (1 ppm FRC) | No FRC Corrosion Rate (mpy) (listed as adenine) | 1 ppm FRC Corrosion Rate (mpy) (listed as adenine)
1 | Tolyltriazole [Compound 7] | 0.0214 | 0.0995 |  |  | 
2 | c1c[nH]cn1 [Compound 8, Imidazole] | 0.69 | 1.1 |  |  | 
3 | c1cncnc1 [Compound 9, Pyrimidine] | 1.2 | 0.79 |  |  | 
4 | CN(C)c1ncnc2nc[nH]c12 [Compound 10, 6,6-Dimethyladenine] | 0.68 | 0.66 |  |  | 
5 | Oc1ncnc2nc[nH]c12 [Compound 4, Hypoxanthine] | 0.1036 | 0.1684 |  |  | 
6 | c1ccc2[nH]cnc2c1 [Compound 6, Benzimidazole] | 0.0890 | 0.9594 |  |  | 
7 | Clc1ncnc2nc[nH]c12 [Compound 3, 6-Chloropurine] | 0.04 | 0.16 |  |  | 
8 | Cc1ncnc2nc[nH]c12 [Compound 11, 6-Methylpurine] | 0.74 | 0.44 |  |  | 
9 | Nc1ncnc2nc[nH]c12 [Compound 5, Adenine] | 0.1665 | 0.3571 | observed increase | 0.16 | 0.35

Source: patent US10669637B2, “Purine-based corrosion inhibitors” (Ecolab USA Inc., priority 2015, dated 2020)
